Consider seven compounds from ChEMBL document CHEMBL3734667 (Bioorg Med Chem, 2015).

The nature of series [1]: Cytotoxicity against human MT4 cells assessed as cell viability after 96 hrs by MTT assay. Type of series: cell-based.
The next series has as its system Human orthopneumovirus. The series can be described thus: Antiviral activity against human RSV infected in african green monkey Vero76 cells assessed as inhibition of virus-induced cytopathogenicity after 5 days by plaque reduction assay. Format: functional, organism-based. To be noted: human respiratory syncytial virus, Vero 76, 120 h.
The next series concerns Poliovirus 1. Kind of series: Antiviral activity against Human poliovirus 1 Sabin infected in african green monkey Vero76 cells assessed as inhibition of virus-induced cytopathogenicity by plaque reduction assay. Format: functional, organism-based. Particulars: Enterovirus C, Vero 76.
The test system of series [2] is Human immunodeficiency virus 1. Kind of series: Antiviral activity against HIV-1 infected in MT4 cells assessed as inhibition of virus-induced cytopathogenicity after 4 days by MTT assay. Type of series: functional, organism-based. To be noted: Human immunodeficiency virus 1, MT4, 96 h.
Series [3] has as its system Vesicular stomatitis virus. Kind of series: Antiviral activity against VSV. Format: functional, organism-based.
The subject of a further series is Vaccinia virus. Kind of series: Antiviral activity against Vaccinia virus. Format: functional, organism-based. Particulars: Orthopoxvirus vaccinia.
A short description of series [4]: Cytotoxicity against MDBK cells assessed as cell viability after 48 to 96 hrs by MTT assay. Format: cell-based, Bos taurus. To be noted: cattle.
For series [5], the system named is Bovine viral diarrhea virus 1. Kind of series: Antiviral activity against BVDV infected in MDBK cells assessed as inhibition of virus-induced cytopathogenicity after 3 to 4 days by MTT assay. Type of series: functional, organism-based. Particulars: Bovine viral diarrhea virus isolates and strains.
In series [6] the test system is Mammalian orthoreovirus 1. The series can be described thus: Antiviral activity against Reo-1 virus infected in BHK-21 cells assessed as inhibition of virus-induced cytopathogenicity after 3 to 4 days by MTT assay. Format: functional, cell-based. To be noted: Mammalian orthoreovirus 1, BHK-21.
Series [7] is described as follows: Cytotoxicity against african green monkey Vero 76 cells assessed as cell viability after 48 to 96 hrs by crystal violet staining method. To be noted: chlorocebus sabaeus. Type of series: cell-based.
The next series concerns Coxsackievirus B5. Kind of series: Antiviral activity against human CVB5 infected in african green monkey Vero76 cells assessed as inhibition of virus-induced cytopathogenicity after 3 days by plaque reduction assay. Format: functional, organism-based. To be noted: Enterovirus B, Vero 76, 72 h.
The next series concerns Yellow fever virus. Kind of series: Antiviral activity against YFV infected in BHK-21 cells assessed as inhibition of virus-induced cytopathogenicity after 3 to 4 days by MTT assay. Format: functional, organism-based.
Series [8] in a line: Cytotoxicity against BHK cells assessed as cell viability after 48 to 96 hrs by MTT assay. Format: cell-based, Mesocricetus auratus. To be noted: hamster.
In another series the test system is Human alphaherpesvirus 1. Kind of series: Antiviral activity against HSV1. Type of series: functional, organism-based.

Some results are limits rather than exact numbers.

In the case of `[O-][n+]1c2ccccc2nn1-c1ccc(O)cc1`, the CC50 at 96 h in [1] is above 100 µM. Besides, the EC50 (in the series with Human orthopneumovirus; in the series with Poliovirus 1; in [2]; in series [3]; in the series on Vaccinia virus; in [5]) was above 100 µM each time. The concentration for a half-maximal effect (EC50) (in series [6]; in the series with Coxsackievirus B5; with Yellow fever virus) was above 100 µM throughout. Also, the CC50 in series [4], in [7] and in series [8] was above 100 µM throughout.

For `C[C@H](Oc1ccc(-n2nc3ccccc3n2)cc1)C(=O)O`, in series [1], the CC50 at 96 h is above 100 µM. For the same compound, the EC50 (in the series with Human orthopneumovirus; in the series on Poliovirus 1; in [2]; in series [3]; in the series with Vaccinia virus; in [5]) was above 100 µM each time. Also, the EC50 in the series with Coxsackievirus B5 and with Yellow fever virus was above 100 µM in each case. The CC50 in series [4], in series [7] and in series [8] was above 100 µM each time.

Consider `C[C@@H](Oc1ccc(-n2nc3ccccc3n2)cc1)C(=O)O`, for which, in series [1], the CC50 at 96 h was above 100 µM. Besides, the EC50 (in the series with Human orthopneumovirus; in the series on Poliovirus 1; in series [2]; in series [3]; with Vaccinia virus; in series [5]) was above 100 µM throughout. The EC50 in the series with Coxsackievirus B5 and in the series with Yellow fever virus was above 100 µM throughout. For the same compound, the CC50 in series [4], in series [7] and in [8] was above 100 µM each time.

Take `COc1ccc(-n2nc3cc(Cl)c(Cl)cc3n2)cc1`: the CC50 at 96 h in series [1] is above 100 µM. Besides, the EC50 (with Human orthopneumovirus; in the series on Poliovirus 1; in [2]; in series [3]; in the series on Vaccinia virus; in series [5]) was above 100 µM each time. In addition, the EC50 (in series [6]; with Coxsackievirus B5; with Yellow fever virus) was above 100 µM in each case. The CC50 in [4], in series [7] and in [8] was above 100 µM in each case.

`O=C(O)COc1ccc(-n2nc3ccccc3[n+]2[O-])cc1`: the CC50 at 96 h in series [1] was above 100 µM. The EC50 (in the series on Human orthopneumovirus; with Poliovirus 1; in [2]; in [3]; with Vaccinia virus; in series [5]) was above 100 µM throughout. Besides, the EC50 (in [6]; with Coxsackievirus B5; in the series with Yellow fever virus) was above 100 µM each time. Further, the CC50 in series [4], in series [7] and in series [8] was above 100 µM each time.

`Nc1nc2c(ncn2COCCO)c(=O)[nH]1` [ACYCLOVIR]: the CC50 at 96 h in series [1] is above 100 µM. Further, the EC50 in the series with Human orthopneumovirus is above 100 µM; in the series on Poliovirus 1, above 100 µM; in [3], above 100 µM; with Vaccinia virus, above 100 µM; in the series on Human alphaherpesvirus 1, 1.2 µM; in [5], above 100 µM. Moreover, the 50% effective concentration (EC50) with Coxsackievirus B5 and in the series with Yellow fever virus was above 100 µM each time. In addition, the CC50 in [4], in [7] and in series [8] was above 100 µM throughout.

`O=C(O)COc1ccc(-n2nc3ccc(Cl)cc3[n+]2[O-])cc1`: the CC50 at 96 h in [1] was above 100 µM. Further, the EC50 (in the series with Human orthopneumovirus; with Poliovirus 1; in [2]; in series [3]; in the series on Vaccinia virus; in series [5]) was above 100 µM throughout. The EC50 (in [6]; in the series with Coxsackievirus B5; in the series with Yellow fever virus) was above 100 µM throughout. For the same compound, the CC50 in [4] is above 100 µM; in [7], 100 µM; in series [8], above 100 µM.
